# Legend:
# Assay in all cases: relative viability (nuclei count vs DMSO), 5 days (fraction); higher = more cells survive
# NCI-H1944 = test system: NCI-H1944
# Summary of the method: (§1)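 Cells from lung cancer lines were seeded into 1536-well plates and, one day later, dosed by pin tool. Treatments were either a single drug or a fixed dose of an anchor drug with five library-drug doses (not always all listed) in √10 steps. After 5 days, nuclei were stained in a one-step fixation (final 0.05% Triton X-100, 1% formaldehyde, 1 ug/ml Hoechst) and counted on 4× images, and relative viability is the treated-to-vehicle nuclei ratio, as the median of duplicate plates.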
# NCI-H2170 = test system: NCI-H2170
# Summary of the method: as §1
# NCI-H2087 = test system: NCI-H2087
# Summary of the method: as §1
# NCI-H3122 = test system: NCI-H3122
# Summary of the method: as §1
# NCI-H1651 = test system: NCI-H1651
# Summary of the method: as §1
# NCI-H2405 = test system: NCI-H2405
# Summary of the method: as §1
# ChaGo-K-1 = test system: ChaGo-K-1
# Summary of the method: as §1
# HCC-366 = test system: HCC-366
# Summary of the method: as §1
# NCI-H1755 = test system: NCI-H1755
# Summary of the method: as §1
# NCI-H2228 = test system: NCI-H2228
# Summary of the method: as §1
# RERF-LC-KJ = test system: RERF-LC-KJ
# Summary of the method: as §1
# NCI-H460 = test system: NCI-H460
# Summary of the method: as §1
# UMC-11 = test system: UMC-11
# Summary of the method: as §1
# LOU-NH91 = test system: LOU-NH91
# Summary of the method: as §1
# NCI-H1793 = test system: NCI-H1793
# Summary of the method: as §1
# NCI-H1395 = test system: NCI-H1395
# Summary of the method: as §1
# LU99A = test system: LU99A
# Summary of the method: as §1
# LC-2-ad = test system: LC-2-ad
# Summary of the method: as §1
# CAL-12T = test system: CAL-12T
# Summary of the method: as §1
# HCC-78 = test system: HCC-78
# Summary of the method: as §1
# ABC-1 = test system: ABC-1
# Summary of the method: as §1
# PC-3 [JPC-3] = test system: PC-3 [JPC-3]
# Summary of the method: as §1
smiles,measurement,setting,value
CC(=O)O[C@@]12CO[C@@H]1C[C@H](O)[C@@]1(C)C(=O)[C@H](O)C3=C(C)[C@@H](OC(=O)[C@H](O)[C@@H](NC(=O)OC(C)(C)C)c4ccccc4)C[C@@](O)([C@@H](OC(=O)c4ccccc4)[C@H]21)C3(C)C [Docetaxel] + COc1cccc2cc(-c3nc([C@H]4CC[C@H](C(=O)O)CC4)n4ncnc(N)c34)[nH]c12 [OSI-027] (partner 0.5 µM),relative viability,NCI-H1944; first compound 0.0002 µM,0.38
same,relative viability,NCI-H1944; first compound 0.000632 µM,0.423
same,relative viability,NCI-H1944; first compound 0.002 µM,0.26
same,relative viability,NCI-H1944; first compound 0.02 µM,0.139
same,relative viability,NCI-H2170; first compound 0.0002 µM,0.734
same,relative viability,NCI-H2170; first compound 0.000632 µM,0.754
same,relative viability,NCI-H2170; first compound 0.002 µM,0.339
same,relative viability,NCI-H2170; first compound 0.006325 µM,0.256
same,relative viability,NCI-H2087; first compound 0.0002 µM,0.464
same,relative viability,NCI-H2087; first compound 0.000632 µM,0.359
same,relative viability,NCI-H2087; first compound 0.002 µM,0.142
same,relative viability,NCI-H2087; first compound 0.006325 µM,0.113
same,relative viability,NCI-H2087; first compound 0.02 µM,0.111
same,relative viability,NCI-H3122; first compound 0.0002 µM,0.932
same,relative viability,NCI-H3122; first compound 0.000632 µM,0.861
same,relative viability,NCI-H3122; first compound 0.002 µM,0.227
same,relative viability,NCI-H3122; first compound 0.006325 µM,0.168
same,relative viability,NCI-H3122; first compound 0.02 µM,0.118
same,relative viability,NCI-H1651; first compound 0.0002 µM,0.627
same,relative viability,NCI-H1651; first compound 0.000632 µM,0.783
same,relative viability,NCI-H1651; first compound 0.002 µM,0.38
same,relative viability,NCI-H1651; first compound 0.006325 µM,0.14
same,relative viability,NCI-H1651; first compound 0.02 µM,0.0753
same,relative viability,NCI-H2405; first compound 0.0002 µM,0.666
same,relative viability,NCI-H2405; first compound 0.000632 µM,0.628
same,relative viability,NCI-H2405; first compound 0.002 µM,0.422
same,relative viability,NCI-H2405; first compound 0.006325 µM,0.333
same,relative viability,NCI-H2405; first compound 0.02 µM,0.255
same,relative viability,ChaGo-K-1; first compound 0.0002 µM,0.554
same,relative viability,ChaGo-K-1; first compound 0.000632 µM,0.459
same,relative viability,ChaGo-K-1; first compound 0.002 µM,0.301
same,relative viability,ChaGo-K-1; first compound 0.006325 µM,0.23
same,relative viability,ChaGo-K-1; first compound 0.02 µM,0.129
same,relative viability,HCC-366; first compound 0.0002 µM,0.917
same,relative viability,HCC-366; first compound 0.000632 µM,0.553
same,relative viability,HCC-366; first compound 0.002 µM,0.0467
same,relative viability,HCC-366; first compound 0.006325 µM,0.0385
same,relative viability,HCC-366; first compound 0.02 µM,0.0274
same,relative viability,NCI-H1755; first compound 0.0002 µM,0.677
same,relative viability,NCI-H1755; first compound 0.000632 µM,0.554
same,relative viability,NCI-H1755; first compound 0.002 µM,0.402
same,relative viability,NCI-H1755; first compound 0.006325 µM,0.39
same,relative viability,NCI-H1755; first compound 0.02 µM,0.353
same,relative viability,NCI-H2228; first compound 0.0002 µM,0.456
same,relative viability,NCI-H2228; first compound 0.000632 µM,0.147
same,relative viability,NCI-H2228; first compound 0.002 µM,0.159
same,relative viability,NCI-H2228; first compound 0.006325 µM,0.161
same,relative viability,NCI-H2228; first compound 0.02 µM,0.112
same,relative viability,RERF-LC-KJ; first compound 0.0002 µM,0.564
same,relative viability,RERF-LC-KJ; first compound 0.000632 µM,0.543
same,relative viability,RERF-LC-KJ; first compound 0.002 µM,0.297
same,relative viability,RERF-LC-KJ; first compound 0.006325 µM,0.248
same,relative viability,RERF-LC-KJ; first compound 0.02 µM,0.161
same,relative viability,NCI-H460; first compound 0.0002 µM,0.645
same,relative viability,NCI-H460; first compound 0.000632 µM,0.238
same,relative viability,NCI-H460; first compound 0.002 µM,0.0745
same,relative viability,NCI-H460; first compound 0.006325 µM,0.0177
same,relative viability,NCI-H460; first compound 0.02 µM,0.0139
same,relative viability,UMC-11; first compound 0.0002 µM,0.433
same,relative viability,UMC-11; first compound 0.000632 µM,0.469
same,relative viability,UMC-11; first compound 0.002 µM,0.231
same,relative viability,UMC-11; first compound 0.006325 µM,0.244
same,relative viability,UMC-11; first compound 0.02 µM,0.175
same,relative viability,LOU-NH91; first compound 0.0002 µM,0.698
same,relative viability,LOU-NH91; first compound 0.000632 µM,0.733
same,relative viability,LOU-NH91; first compound 0.002 µM,0.466
same,relative viability,LOU-NH91; first compound 0.006325 µM,0.344
same,relative viability,LOU-NH91; first compound 0.02 µM,0.3
same,relative viability,NCI-H1793; first compound 0.0002 µM,0.282
same,relative viability,NCI-H1793; first compound 0.000632 µM,0.275
same,relative viability,NCI-H1793; first compound 0.002 µM,0.227
same,relative viability,NCI-H1793; first compound 0.006325 µM,0.181
same,relative viability,NCI-H1793; first compound 0.02 µM,0.15
same,relative viability,NCI-H1395; first compound 0.0002 µM,0.609
same,relative viability,NCI-H1395; first compound 0.000632 µM,0.657
same,relative viability,NCI-H1395; first compound 0.002 µM,0.538
same,relative viability,NCI-H1395; first compound 0.006325 µM,0.373
same,relative viability,NCI-H1395; first compound 0.02 µM,0.272
same,relative viability,LU99A; first compound 0.0002 µM,0.293
same,relative viability,LU99A; first compound 0.002 µM,0.29
same,relative viability,LU99A; first compound 0.006325 µM,0.247
same,relative viability,LU99A; first compound 0.02 µM,0.202
same,relative viability,LC-2-ad; first compound 0.0002 µM,0.598
same,relative viability,LC-2-ad; first compound 0.000632 µM,0.589
same,relative viability,LC-2-ad; first compound 0.002 µM,0.441
same,relative viability,LC-2-ad; first compound 0.006325 µM,0.415
same,relative viability,CAL-12T; first compound 0.0002 µM,0.44
same,relative viability,CAL-12T; first compound 0.000632 µM,0.272
same,relative viability,CAL-12T; first compound 0.002 µM,0.186
same,relative viability,CAL-12T; first compound 0.02 µM,0.111
same,relative viability,HCC-78; first compound 0.0002 µM,0.321
same,relative viability,HCC-78; first compound 0.000632 µM,0.308
same,relative viability,HCC-78; first compound 0.002 µM,0.315
same,relative viability,HCC-78; first compound 0.006325 µM,0.278
same,relative viability,HCC-78; first compound 0.02 µM,0.284
same,relative viability,ABC-1; first compound 0.0002 µM,0.443
same,relative viability,ABC-1; first compound 0.000632 µM,0.562
same,relative viability,ABC-1; first compound 0.002 µM,0.289
same,relative viability,ABC-1; first compound 0.006325 µM,0.178
same,relative viability,ABC-1; first compound 0.02 µM,0.186
same,relative viability,PC-3 [JPC-3]; first compound 0.0002 µM,0.703
same,relative viability,PC-3 [JPC-3]; first compound 0.000632 µM,0.79
same,relative viability,PC-3 [JPC-3]; first compound 0.002 µM,0.441
same,relative viability,PC-3 [JPC-3]; first compound 0.02 µM,0.15

# From the supplement of paper PMC10307832
